Reference: PubChem BioAssay (NCI)
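In this assay, cells in 96-well plates receive the compound at five concentrations for 48 hours. Endpoints are linearly interpolated between the surrounding concentrations. TGI is the concentration that stops growth completely.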

Assays:
Experiment in all cases: DTP human tumour cell line panel, 48 h
OVCAR-3 ovarian = system: OVCAR-3 ovarian
SK-MEL-5 melanoma = system: SK-MEL-5 melanoma
HOP-62 NSCLC = system: HOP-62 NSCLC
M14 melanoma = system: M14 melanoma
RXF 393 renal = system: RXF 393 renal
DU-145 prostate = system: DU-145 prostate
HS 578T breast = system: HS 578T breast
SW-620 colon = system: SW-620 colon
OVCAR-5 ovarian = system: OVCAR-5 ovarian
HCT-15 colon = system: HCT-15 colon
OVCAR-4 ovarian = system: OVCAR-4 ovarian
UACC-62 melanoma = system: UACC-62 melanoma
COLO 205 colon = system: COLO 205 colon

SMILES | TGI (OVCAR-3 ovarian) [µM] | TGI (SK-MEL-5 melanoma) [µM] | TGI (HOP-62 NSCLC) [µM] | TGI (M14 melanoma) [µM] | TGI (RXF 393 renal) [µM] | TGI (DU-145 prostate) [µM] | TGI (HS 578T breast) [µM] | TGI (SW-620 colon) [µM] | TGI (OVCAR-5 ovarian) [µM] | TGI (HCT-15 colon) [µM] | TGI (OVCAR-4 ovarian) [µM] | TGI (UACC-62 melanoma) [µM] | TGI (COLO 205 colon) [µM]
COc1cc2nc(Cl)nc(NS(=O)(=O)c3cc4ccccc4s3)c2cc1OC | 44.7 | 37.9 | > 100 | 85 | 37.9 | 60.1 | > 100 | 43.5 | 50 | > 100 | 88.1 | 39.3 | > 100
N#Cc1ccccc1OCCOc1ccccc1C#N | > 100 | > 100 | > 100 | > 100 | > 100 | > 100 | > 100 | > 100 | > 100 | > 100 | > 100 | > 100 | > 100
CCOc1cnc(C(O)(c2ccccc2)c2ccccc2)o1 | > 100 | > 100 | > 100 | > 100 | > 100 | > 100 | > 100 | > 100 | > 100 | > 100 | > 100 | > 100 | > 100
CC(=O)NC1C(OCC(=O)NCCNc2ccc([N+](=O)[O-])c3[nH]c4ccccc4c(=O)c23)C(O)C(CO)OC1(C)OCc1ccccc1 (configuration not stated) | > 100 | > 100 | > 100 | > 100 | > 100 | > 100 | > 100 | > 100 | > 100 | > 100 | > 100 | > 100 | > 100
[B]C(=O)NC(CC(C)C)C(=O)NCC(=O)NC1c2ccsc2C(=O)C1O (configuration not stated) (tested in a mixture with another compound) | > 100 | > 100 | > 100 | > 100 | > 100 | > 100 | > 100 | > 100 | > 100 | > 100 | > 100 | > 100 | > 100
COC1(OC)CCc2c(sc3ncnc(Nc4cccc(Br)c4)c23)C1 | > 100 | > 100 | > 100 | > 100 | 62.4 | 53.9 | > 100 | > 100 | 51.4 | > 100 | > 100 | > 100 | > 100
c1cc(-c2ccc(-c3ccsc3)s2)cs1 | > 100 | > 100 | > 100 | > 100 | > 100 | > 100 | > 100 | > 100 | > 100 | > 100 | 57.5 | > 100 | > 100
COC(=O)[C@H](Cc1ccccc1)NC(=O)c1ccc(CNC(=O)/C=C/c2csc(-c3ccccc3)n2)cc1 | 26.3 | 14.7 | 52.5 | 3.81 | 26.8 | > 74.6 | 58.1 | > 100 | > 100 | > 60.4 | > 71 | 31.1 | > 83.2
CC(C)(C)OC(=O)N(CCCCNC(=O)C(F)(F)F)CCCNC(=O)C(F)(F)F | > 100 | > 100 | > 100 | > 100 | > 100 | > 100 | > 100 | > 100 | > 100 | > 100 | > 100 | > 100 | > 100
Cc1[nH]n(-c2nc3c(c(=O)[nH]2)CCCC3)c(=O)c1CCO | > 100 | > 100 | > 100 | > 100 | > 100 | > 100 | > 100 | > 100 | > 100 | > 100 | > 100 | > 100 | > 100
CSC(=O)/C=C1\SS/C(=C\C(=O)SC)S1 | 11.2 | 6.79 | 20.4 | 5.24 | 2.8 | 15.7 | 13.8 | 4.15 | 13.7 | 6.07 | > 41.2 | 2.87 | 30.6
COC1(OC)c2occc2C(=N)c2ccc(=O)oc21 | > 100 | 49.2 | > 100 | > 100 | > 100 | > 100 | > 100 | > 100 | > 100 | > 100 | > 100 | > 100 | > 100
S=C1Cc2c(-c3ccccc3)cc(-c3cccc(Cl)c3)nc2-c2ccccc2N1 | 25.9 | > 81.7 | 6.48 | > 49.7 | 12.8 | 38.9 | 6.12 | 15.4 | > 72.7 | 33.4 | 1.21 | 5.36 | > 100
Cc1cc(O)c(/C=N/C(N)=S)c(=O)o1 | > 100 | > 100 | > 100 | > 100 | > 100 | > 100 | > 100 | > 100 | > 100 | > 100 | > 100 | > 100 | > 100
